Reference: US20070082068A1, “Il-8 production promoters and use thereof” (priority 2003, published 2007)

Legend:
[1] = system: IL-8 production by Caco-2 cells; experiment: Effect of promoting IL-8 production by Caco-2 cells (sandwich ELISA of culture supernatants); type: cell-based, human; conditions: compounds at final concentration 100 μg/ml; 6-hour culture, then 12 hours in additive-free media; differentiated Caco-2 cells; significant difference P<0.01
Protocol: Caco-2 cells (human colon cancer-derived cell line; American Type Culture Collection, Rockville, Md., U.S.A.) were used as small-intestinal epithelial cell models to evaluate the influence of peppermint, dokudami (houttuynia herb), and licorice extracts on IL-8 production by the cells.
(§1) The Caco-2 cells were subcultured in 24-well plates. The resulting cells were cultured at 37° C. for 14 days under 5% CO2 conditions and thereby differentiated into small-intestinal epithelioid cells. Culture media used were DMEM media (SIGMA Corp.) containing 10% fetal calf serum, 1% non essential amino acid solution, 2% glutamine, 100 U/ml penicillin, and 100 μg/ml streptomycin. A peppermint extract obtained in Example 1, a dokudami (houttuynia herb) extract obtained in Example 2, and a licorice extract obtained in Example 3 were added at each final concentration of 100 μg/ml to the media, and the cells were cultured therein. After 6-hour culture, the media were replaced with additive-free media, followed by additional culture for 12 hours. The resulting culture supernatants were subjected to sandwich ELISA assay (Eckmann, L., et al., Gastroenterology, 105, 1689-1697, 1993) to quantify the amount of IL-8 in the culture supernatants.
Caco-2 cells (human colon cancer-derived cell line; American Type Culture Collection, Rockville, Md., U.S.A.) were used as small-intestinal epithelial cell models to evaluate the influence of α-humulene, α-pinene, β-pinene and L-menthol on IL-8 production by the cells.
as §1, with “5% Co2” for “5% CO2”, “streptomycin. α-humulene (SIGMA Corp.), α-pinene (SIGMA Corp.), β-pinene (SIGMA Corp.),” for “streptomycin. A peppermint extract obtained in Example 1, a dokudami (houttuynia herb) extract obtained in Example 2,”, “and L-menthol (SIGMA Corp.)” for “and a licorice extract obtained in Example 3”, “media was” for “media were”, “assay” for “assay (Eckmann, L., et al., Gastroenterology, 105, 1689-1697, 1993)”

[2] = system: Caco-2 cells; experiment: Evaluation of cytotoxicity by LDH (lactate dehydrogenase) assay; type: cell-based; conditions: 100 μg/ml; 24 hours; differentiated Caco-2 cells
Protocol: The cytotoxicity of peppermint, dokudami (houttuynia herb), licorice extracts was evaluated with Caco-2 cells. The Caco-2 cells differentiated into small-intestinal epithelioid cells in the same way as in Example 4 were cultured for 24 hours in media containing the peppermint, dokudami (houttuynia herb), and licorice extracts at each final concentration of 100 μg/ml. Subsequently, the media were removed, and the resulting cells were washed twice with PBS (phosphate buffered saline) (−) (Nissui Co., Ltd.). The cells were further supplemented with 700 μl of PBS (−) and left undisturbed at 37° C. for 2 hours. […] In summary, this assay is a method for quantifying cytotoxicity based on the activity of LDH released from dead cells by colormetrically determining formazan converted from a tetrazolium salt serving as a coloring reagent. The rate of free LDH (%) was calculated according to the equation below by using the LDH concentration in the collected PBS (−) as the amount of free LDH and the LDH concentration in the cell lysate as the amount of intracellular LDH. […]
The cytotoxicity of α-humulene was evaluated with Caco-2 cells. […] The rate of free LDH (6) was calculated according to the equation below by using the LDH concentration in the collected PBS (—) as the amount of free LDH and the LDH concentration in the cell lysate as the amount of intracellular LDH. […]

Structure (SMILES)	IL-8 production by the Caco-2 cells (relative IL-8 concentration to a control, FIG. 2) [1]	Cytotoxicity (rate of free LDH vs control, FIG. 4) [2]
C=C1CC[C@@H]2C[C@H]1C2(C)C [β-pinene]	remarkably promoted IL-8 production	–
CC(C)[C@@H]1CC[C@@H](C)C[C@H]1O [L-menthol]	remarkably promoted IL-8 production	–
CC1=CC[C@H]2C[C@@H]1C2(C)C [α-pinene]	remarkably promoted IL-8 production	–
C/C1=C\CC/C(C)=C/CC(C)(C)/C=C/C1 [α-humulene]	remarkably promoted IL-8 production	no cytotoxicity
